In US5164295A, “Method for identifying amyloid protein-extracellular matrix protein affinity altering compounds” (The Upjohn Company, priority 1991, dated 1992):
Values joined by “and” are separate entries in the source; they are usually repeats but may differ in a detail not shown here. Equal values may be shown once. Read-outs that look alike come from different tables or passages of the source.

How the values were obtained:
BSA = assay: ELISA control: binding of HSPG to BSA coated wells; parameters: species or system bovine
Experimental: The assay used in studying the interaction between HSPG and protein ligands was an ELISA technique. Briefly, polystyrene micro-titer plates (Linbro, Flow Lab Inc.) were coated with a 100 μl solution, containing 1 μg/ml of the protein of interest (one of the three forms of AAP or fibronectin) in 20 mM NaHCO3 buffer pH 9.6. After incubation overnight at 4° C., the plates were rinsed with 0.15M NaCl, 20 mM Tris-Cl pH 7.5 (TBS). The plates were then incubated with 150 μl of 1% BSA in TBS for 2 hours at 37° C. to block the residual hydrophobic surface on the wells. After rinsing with TBS containing 0.05% (w/v) Tween 20 (TBS-Tween), 100 μl of various concentrations of HSPG in TBS-Tween were added. […] Finally, after further washing, the bound antibodies were detected by adding an alkaline phosphatase substrate solution (100 μl) containing 2 mg/ml p-nitrophenyl phosphate, 0.1 mM ZnCl2, 1 mM MgCl2 and 100 mM glycine pH 10. […] The absorbance of the released p-nitrophenol was measured at 405 nm with a Titertek Multiscan/MCC 340 (Flow Lab. Ltd.). The amounts of HSPG bound were determined by the net OD405 after substracting the OD from the blank wells in which the HSPG incubation step was omitted. When the actual amounts of HSPG bound were to be calculated, a set of standards (0.05-50 ng/well) of HSPG in NaHCO3 buffer were pre-coated into wells on the same plates as the test proteins. […]

AAP751 /s = assay: ELISA: binding of free HSPG (intact or core protein) to immobilized AAP751 /s; settings: for Kd: absence of test compounds, mean ± SD, read-out: Kd of HSPG (intact or core protein) complex with AAP751 /s
Experimental: (§1) To study the interaction between HSPG and either AAP770 /s, AAP751 /s, AAP695 /s or fibronectin, the AAP proteins and fibronectin were individually immobilized on polystyrene wells and incubated with increasing concentrations of purified HSPG. Fibronectin was used as a test protein because of its known affinity for HSPG. […] To address this concern, the purified protein core of HSPG in place of the intact proteoglycan was utilized to examine the role of the protein component.
(§2) The assay used in studying the interaction between HSPG and protein ligands was an ELISA technique. Briefly, polystyrene micro-titer plates (Linbro, Flow Lab Inc.) were coated with a 100 μl solution, containing 1 μg/ml of the protein of interest (one of the three forms of AAP or fibronectin) in 20 mM NaHCO3 buffer pH 9.6. After incubation overnight at 4° C., the plates were rinsed with 0.15M NaCl, 20 mM Tris-Cl pH 7.5 (TBS). The plates were then incubated with 150 μl of 1% BSA in TBS for 2 hours at 37° C. to block the residual hydrophobic surface on the wells. After rinsing with TBS containing 0.05% (w/v) Tween 20 (TBS-Tween), 100 μl of various concentrations of HSPG in TBS-Tween were added. […] Finally, after further washing, the bound antibodies were detected by adding an alkaline phosphatase substrate solution (100 μl) containing 2 mg/ml p-nitrophenyl phosphate, 0.1 mM ZnCl2, 1 mM MgCl2 and 100 mM glycine pH 10. […] The absorbance of the released p-nitrophenol was measured at 405 nm with a Titertek Multiscan/MCC 340 (Flow Lab. Ltd.). The amounts of HSPG bound were determined by the net OD405 after substracting the OD from the blank wells in which the HSPG incubation step was omitted. When the actual amounts of HSPG bound were to be calculated, a set of standards (0.05-50 ng/well) of HSPG in NaHCO3 buffer were pre-coated into wells on the same plates as the test proteins. […] The actual amounts of HSPG bound to the test proteins were calculated from the OD405 standard curve produced by the HSPG standards using a Titersoft II E.J.A. software program (Flow Lab. Ltd.). […]

fibronectin = assay: ELISA: binding of free HSPG (intact or core protein) to immobilized fibronectin; parameters: species or system bovine; settings: absence of test compounds; mean ± SD; read-out: Kd of HSPG (intact or core protein) complex with fibronectin
Excerpt: Fibronectin (from bovine plasma), heparin (grade II from porcine intestinal mucosa, average molecular weight=[…]), heparan sulfate, chondroitin sulfate, dextran sulfate, BSA, and alkaline phosphatase substrate were obtained from Sigma, St. Louis, Mo. Alkaline phosphatase conjugated goat anti-rabbit IgG was obtained from Boehringer-Manneheim, and heparitinase from ICN Biochemicals.
To study the interaction between HSPG and either AAP770 /s, AAP751 /s, AAP695 /s or fibronectin, the AAP proteins and fibronectin were individually immobilized on polystyrene wells and incubated with increasing concentrations of purified HSPG. Fibronectin was used as a test protein because of its known affinity for HSPG. […]
(§3) The assay used in studying the interaction between HSPG and protein ligands was an ELISA technique. […] Finally, after further washing, the bound antibodies were detected by adding an alkaline phosphatase substrate solution (100 μl) containing 2 mg/ml p-nitrophenyl phosphate, 0.1 mM ZnCl2, 1 mM MgCl2 and 100 mM glycine pH 10. […] The absorbance of the released p-nitrophenol was measured at 405 nm with a Titertek Multiscan/MCC 340 (Flow Lab. Ltd.). The amounts of HSPG bound were determined by the net OD405 after substracting the OD from the blank wells in which the HSPG incubation step was omitted. […]

AAP770 /s = assay: ELISA: binding of free HSPG to immobilized AAP770 /s; settings: absence of test compounds, mean ± SD, read-out: Kd of HSPG complex with AAP770 /s
Experimental: as §1
as §3, with “omitted. When the actual amounts of HSPG bound were to be calculated, a set of standards (0.05-50 ng/well) of HSPG in NaHCO3 buffer were pre-coated into wells on the same plates as the test proteins.” for “omitted.”

AAP695 /s = assay: ELISA: binding of free HSPG (intact or core protein) to immobilized AAP695 /s
Experimental: as §1
as §2, with “added. The plates were left overnight at 4° C., to permit maximum binding of HSPG to the coated proteins. The plates were then washed extensively and incubated for 2 hours at 37° C., with 100 μl of anti-HSPG diluted in TBS-Tween containing 0.1% BSA.” for “added.”
To determine the Kd of the protein-HSPG complex, the binding data were analyzed assuming a thermodynamic equilibrium for the formation of the complex, B, from the ligand in solution, HSPG, and the uncomplexed protein adsorbed to the microtiter well, R, according to the equation: [formula] Due to the nature of the experimental design, nonspecific binding could not be measured directly. […]

- binding of HSPG to BSA in comparison to the tested proteins (BSA): negligible
- Kd (AAP751 /s; listed as HSPG): 10.2 nM and 9 to 10 nM
- Kd (AAP751 /s): 10.2 ± 2.45 nM
- Bmax, total binding capacity (AAP751 /s; typical experiment using AAP751 /s): 15.9±0.2 ng HSPG
- Kd (fibronectin): 0.98 nM
- Kd (AAP770 /s; listed as HSPG): 9.13 nM and 9 to 10 nM
- Kd (AAP770 /s): 9.13 ± 1.06 nM
- Kd (AAP695 /s; absence of test compounds, mean ± SD, listed as HSPG, read-out: Kd of HSPG (intact or core protein) complex with AAP695 /s): 0.88 nM and ~0.9 nM
- Kd (AAP695 /s; absence of test compounds, mean ± SD, listed as intact HSPG, read-out: Kd of HSPG (intact or core protein) complex with AAP695 /s): 0.9 ± 0.25 nM
- Kd (AAP695 /s; absence of test compounds, mean ± SD, read-out: Kd of HSPG (intact or core protein) complex with AAP695 /s): 0.88 ± 0.35 nM
- Kd (AAP695 /s; heparin 400 μg/ml, read-out: Kd of HSPG (intact or core protein) complex with AAP695 /s in presence of heparin): 3.56 ± 1.78 nM
Substance: heparan sulfate proteoglycan [Intact HSPG]
